# According to patent US20040077639A1, “Methods for the treatment of respiratory diseases and conditions using a selective iNOS inhibitor” (priority 2002, published 2004):
# Legend:
# [1] = system: iNOS activity in human primary airway epithelial cells; assay: Nitrite in media of cytokine-treated human primary airway epithelial cells; type: cell-based; conditions: 50 ng/ml IL-1β, TNF-α and IFN-γ (cytomix), 24 h; FIG. 1; read-out: IC50 for inhibition of the increase in nitrite in the media
# Method: Human primary airway epithelial cell cultures: Human primary airway epithelial cells were cultured as described previously (see Donnelly,L. E. and Barnes, P. J. Am J Respir Cell Mol.Biol 24:295-303 (2000)), and the amount of nitrite, the stable oxidation product of NO, in the cell culture media was measured using a modification of the spectrofluorometric method of Misko et al., Anal. Biochem. […] (1993).
# The protein was evenly distributed throughout the cytoplasm in basal cells but clearly located beneath the cilia in the columnar, ciliated cells. Treatment of airway epithelial cells with 50 ng/ml of IL-1β, TNF-α and IFN-γ (cytomix) for 24 h caused an induction of iNOS protein and an increase in the accumulation of nitrite in cell culture media from 2.20±0.2 μM in the absence of cytomix, to 3.5±0.4 μM in the presence of cytomix.
# Media was harvested and measured for nitrite content (FIG. 1). Cellular proteins were resolved on 3-8% tris-acetate polyacrylamide gels and immunoblotted for iNOS protein (FIG. 2).
# Rather, as expected, it appears to result from inhibition of enzymatic activity.
# [2] = system: iNOS protein expression in human primary airway epithelial cells; assay: Western blotting of iNOS from cultured epithelial cells; type: cell-based; conditions: cytomix-treated cells; FIG. 2
# Method: Westem blotting of INOS from cultured epithelial cells: Following incubation with the cytokine mixture alone or with various concentrations of L-NIL, epithelial cells were lysed in 50 mM Tris/HCl, pH 7.4, containing 0.25 mM ethylene diaminotetraacetic acid, 0.5 mM phenylmethylsulfonyl fluoride, 5 μg/ml antipain, 5 μg/ml leupeptin and 5 μg/ml benzaminidine. The protein concentration was determined using the BioRad protein assay kit according to the manufacturer's instructions. Cell proteins were solubilized in sodium dodecyl sulfate polyacrylamide gel electrophoresis sample buffer ([…] Tris/HCl, pH 6.8, containing 10% v/v glycerol, 1% w/v SDS, 1% w/v β-mercaptoethanol, and 0.01% w/v bromophenol blue). The proteins (15 μg per lane) were resolved by electrophoresis in 3-8% (w/v) Tris-acetate SDS-polyacrylamide gels and transferred to Hybond-Enhanced Chemi-luminescence (ECL) nitro-cellulose membranes. Equal protein loading was determined by staining the blot with 0.1% (w/v) Ponceau S in 5% (v/v) acetic acid. The nitro-cellulose was then blocked overnight at 4° C. in 0.5M Tris-HCl,pH 7.4, containing 3% (w/v) normal goat serum, 1% (w/v) bovine serum albumin and 0.05% (v/v) Tween-20. […]
# Media was harvested and measured for nitrite content (FIG. 1). […]
compound,measurement,setting,value
CC(=N)NCCCC[C@H](N)C(=O)O [L-NIL],IC50,[1],~5.7 µM
same,effect on iNOS expression as detected by immunoblotting,[2],did not affect
